Assay results taken from patent publication US20180311217A1, “METHODS OF TREATMENT AND COMPOSITIONS WITH XANTHINE OXIDASE INHIBITORS” (Takeda Pharmaceuticals U.S.A., Inc., priority 2013, published 2018).
Marks after values point to notes of the source that are not given here.

How the values were obtained:
[1] = test system: hyperuricemic gout subjects with moderate to severe renal impairment; experiment: Example 1 study: subjects experiencing gout flares; format: in vivo, human
Method: All subjects received colchicine 0.6 mg every other day (QOD) from the initial screening visit through the Month 6 visit only. Alternatively, if colchicine was not tolerated by the subject, prednisone may have been provided at the investigator's discretion in accordance with the stated guidelines listed under Prohibited Concomitant Medications.
All subjects were instructed to take colchicine 0.6 mg QOD for prophylaxis. Colchicine began at the Screening Day −21 visit for all subjects. Subjects received colchicine 0.6 mg QOD through the Month 6 visit.
Subjects were assessed for gout flares from the time the ICF was signed and throughout the duration of the study. Subjects were instructed to call the Investigator as soon as they thought they were having a gout flare. The Gout Flare Assessment Worksheet was completed by the site personnel (ie, study coordinator, study nurse, or the investigator).
Subjects were instructed to report the following information: the onset and end date of the flare, the kind of prophylaxis medication they were taking at the time of the event, whether or not the attack required medication (including type) and dates of treatment, the location of the flare, signs and symptoms regarding the flare including the severity, subjects' pain intensity (pain in rest), and the assessment of current gout flare compared to all previous gout flares in any joints. In addition, the subjects were asked an exploratory question in nature: the subject was asked during their current gout attack to indicate the degree of which the subject's physical mobility had been limited (on a scale of 0-10). The investigator reviewed the information provided and assessed whether or not they believed the subject experienced a gout flare and/or documented an alternative etiology.
Summary statistics for the number and percentage of subjects experiencing a gout flare were summarized by treatment group within the following intervals: Day 1 to Month 2 (Day 1 to 60), Month 2 to 4 (Day 61 to 120), Month 4 to 6 (Day 121 to 180), Month 6 to 8 (Day 181 to 240), Month 8 to 10 (Day 241 to 300), Month 10 to 12 (>day 301, and overall Day 1 to Month 6, and Month 6 to Month 12. All gout flares with onset after Day 301 (including those reported <30 days since last dose) were included in the Month 10 to 12 interval.

[2] = test system: hyperuricemic gout subjects with moderate to severe renal impairment; experiment: Example 1 randomized double-blind 12 month study: serum urate (sUA); format: in vivo, human
Source text: Randomization was stratified at baseline using 3 strata: subjects taking an angiotensin receptor blocker (ARB), subjects taking an angiotensin converting enzyme inhibitors (ACEi), or subjects not taking an ARB or an ACEi. […] Serum samples for the analysis of sUA were collected as part of the standard chemistry panel at the time points stipulated in Schedule of Study Procedures (Table 1). All samples were collected in accordance with standard laboratory procedures. Serum urate concentrations were determined using the enzymatic method as performed by the Central Laboratory and were blinded to the Sponsor and investigative site beginning at Day 1 through the Month 12/ET visits. Missing data in all efficacy analyses was imputed with the last available postbaseline observation carrying forward (LOCF). A subject was included in the analysis of a specific efficacy variable only when there was both a baseline value and at least 1 value during the double-blind treatment period. […] The percentage of subjects with sUA<6 mg/dL at Month 12 was summarized by treatment group, and the treatment groups were compared by a CMH test with prior use of an ARB or ACEi as a stratification variable. In addition, change from baseline and percent change from Baseline in sUA were summarized by visit and by treatment.

Cc1nc(-c2ccc(OCC(C)C)c(C#N)c2)sc1C(=O)O [Febuxostat, 2-[3-cyano-4-(2-methylpropoxy)phenyl]-4-methylthiazole-5-carboxylic acid]
Percentage of Subjects With Gout Flares ([1]; 30 mg BID, 2 to ≤4 months): (10.7) %
Percentage of Subjects With Gout Flares ([1]; 30 mg BID, 4 to ≤6 months): (14.3) %
Percentage of Subjects With Gout Flares ([1]; 30 mg BID, 4 to ≤6 months, listed as febuxostat): 14.3%
Percentage of Subjects With Gout Flares ([1]; 30 mg BID, 6 to ≤8 months (after prophylaxis ended)): (26.3) %
Percentage of Subjects With Gout Flares ([1]; 30 mg BID, 6 to ≤8 months (after prophylaxis ended), listed as febuxostat): 26.3%
Percentage of Subjects With Gout Flares ([1]; 30 mg BID, 8 to ≤10 months): (5.9) %
Percentage of Subjects With Gout Flares ([1]; 30 mg BID, 10 to ≤12 months): (11.8) %
Percentage of Subjects With Gout Flares ([1]; 30 mg BID, Day 1 to Month 6): (28.1)* %
Percentage of Subjects With Gout Flares ([1]; 30 mg BID, Day 1 to Month 6, listed as febuxostat): 28.1%
Percentage of Subjects With Gout Flares ([1]; 30 mg BID, Month 6 to Month 12): (31.6)* %
Percentage of Subjects With Gout Flares ([1]; 30 mg BID, Month 6 to Month 12, listed as febuxostat): 31.6%
Percentage of Subjects With Gout Flares ([1]; 30 mg BID, ≤2 months): (18.8)* %
Increase of percentage of subjects with at least one gout flare, months 6 to ≤8 relative to months 4 through 6 ([1]; 30 mg IR BID): 84%
Increase of percentage of subjects with at least one gout flare, months 6 to ≤8 relative to months 4 through 6 ([1]; 40/80 mg IR QD): 279%
Percentage of Subjects With Gout Flares ([1]; 40/80 mg QD, 2 to ≤4 months): (27.6) %
Percentage of Subjects With Gout Flares ([1]; 40/80 mg QD, 4 to ≤6 months): (17.9) %
Percentage of Subjects With Gout Flares ([1]; 40/80 mg QD, 4 to ≤6 months, listed as febuxostat): 17.9%
Percentage of Subjects With Gout Flares ([1]; 40/80 mg QD, 6 to ≤8 months (after prophylaxis ended)): (50.0) %
Percentage of Subjects With Gout Flares ([1]; 40/80 mg QD, 6 to ≤8 months (after prophylaxis ended), listed as febuxostat): 50.0%
Percentage of Subjects With Gout Flares ([1]; 40/80 mg QD, 8 to ≤10 months): (22.2) %
Percentage of Subjects With Gout Flares ([1]; 40/80 mg QD, 10 to ≤12 months): (23.1) %
Percentage of Subjects With Gout Flares ([1]; 40/80 mg QD, Day 1 to Month 6): (56.3) %
Percentage of Subjects With Gout Flares ([1]; 40/80 mg QD, Day 1 to Month 6, listed as febuxostat): 56.3%
Percentage of Subjects With Gout Flares ([1]; 40/80 mg QD, Month 6 to Month 12): (64.3) %
Percentage of Subjects With Gout Flares ([1]; 40/80 mg QD, Month 6 to Month 12, listed as febuxostat): 64.3%
Percentage of Subjects With Gout Flares ([1]; 40/80 mg QD, ≤2 months): (50.0) %
Percentage of Subjects with sUA < 6.0 mg/dL ([2]; 30 mg BID, Day 14): 71.9 (23/32) %
Percentage of Subjects with sUA < 6.0 mg/dL ([2]; 30 mg BID, Month 1): 71.9 (23/32) %
Percentage of Subjects with sUA < 6.0 mg/dL ([2]; 30 mg BID, Month 3): 78.1 (25/32) %
Percentage of Subjects with sUA < 6.0 mg/dL ([2]; 30 mg BID, Month 6): 65.6 (21/32)* %
Serum urate change from Baseline, LS mean (SE) ([2]; 30 mg BID, Month 6): −5.08 (0.304) mg/dL
Serum urate change from Baseline, LS mean difference (SE) from placebo group ([2]; 30 mg BID, Month 6): −5.15 (0.428) mg/dL
Percentage of Subjects with sUA < 6.0 mg/dL ([2]; 30 mg BID, Month 9): 68.8 (22/32) %
Percentage of Subjects with sUA < 6.0 mg/dL ([2]; 30 mg BID, Month 12): 68.8 (22/32)* %
Serum urate change from Baseline, LS mean (SE) ([2]; 30 mg BID, Month 12): −4.97 (0.318) mg/dL
Serum urate change from Baseline, LS mean difference (SE) from placebo group ([2]; 30 mg BID, Month 12): −4.82 (0.447) mg/dL
Serum urate change from Baseline, LS mean (SE) ([2]; 30 mg BID, Month 12, listed as febuxostat): -4.97 mg/dL
Percentage of Subjects with sUA < 6.0 mg/dL ([2]; 40/80 mg QD, Day 14): 33.3 (10/30) %
Percentage of Subjects with sUA < 6.0 mg/dL ([2]; 40/80 mg QD, Month 1): 35.5 (11/31) %
Percentage of Subjects with sUA < 6.0 mg/dL ([2]; 40/80 mg QD, Month 3): 58.1 (18/31) %
Percentage of Subjects with sUA < 6.0 mg/dL ([2]; 40/80 mg QD, Month 6): 51.6 (16/31)* %
Serum urate change from Baseline, LS mean (SE) ([2]; 40/80 mg QD, Month 6): −4.29 (0.309) mg/dL
Serum urate change from Baseline, LS mean difference (SE) from placebo group ([2]; 40/80 mg QD, Month 6): −4.36 (0.431) mg/dL
Percentage of Subjects with sUA < 6.0 mg/dL ([2]; 40/80 mg QD, Month 9): 58.1 (18/31) %
Percentage of Subjects with sUA < 6.0 mg/dL ([2]; 40/80 mg QD, Month 12): 45.2 (14/31)* %
Serum urate change from Baseline, LS mean (SE) ([2]; 40/80 mg QD, Month 12): −4.17 (0.323) mg/dL
Serum urate change from Baseline, LS mean difference (SE) from placebo group ([2]; 40/80 mg QD, Month 12): −4.02 (0.451) mg/dL
Serum urate change from Baseline, LS mean (SE) ([2]; 40/80 mg QD, Month 12, listed as febuxostat): -4.17 mg/dL
